# According to US20210145846A1 (Kashiv BioSciences, LLC, priority 2017, published 2021):
# Where two headings read alike, the source gives them in different places.
# How the values were obtained:
# [1] = cited from earlier work
# [2] = test system: HR-positive metastatic breast cancer; settings: cited from earlier work
# [3] = Viscosities of the components in the prototype formulations; format: physicochemical; settings: neat excipient
# Source text: Once injected into the muscle tissue, it forms a depot and the formulation components begin to diffuse into the surrounding tissue and the circulatory system. The rate of diffusion for each component depends on the solubility, permeability, and viscosity of the formulation in the local environment of the depot. Notwithstanding the complexity of the in vivo situation, and without wishing to be held to a particular theory, it is expected that the viscosity of the formulation is a critical factor that affects the diffusion of the formulation components from the site of injection, including from the point of view of ease of injection, diffusion into the muscle tissue, and rate of absorption.
# [4] = Storage stability of Formulations 1-3 (dl-α-tocopherol assay, total impurities); format: physicochemical; settings: various storage conditions
# Protocol: Three-week and four-week storage stabilities, as per Table 15, of Formulations 1-3 were determined under standard storage conditions of 5° C., storage at room temperature, and storage at 40° C./75% RH. The total impurities were less than 1% at the end of three- or four-week storage at 5° C., RT, and 40° C./75% RH.
molecule,measurement,setting,value
"C[C@]12CC[C@@H]3c4ccc(O)cc4C[C@@H](CCCCCCCCC[S+]([O-])CCCC(F)(F)C(F)(F)F)[C@H]3[C@@H]1CC[C@@H]2O (stereo partly drawn) [Fulvestrant, 7α-[9-[(4,4,5,5,5-pentafluoropentyl)sulfinyl]nonyl]-estra-1,3,5(10)-triene-3,17β-diol]",Solubility (mg/ml) at 25° C.,"[1]; in Benzyl alcohol, 25° C.",>200 mg/mL
same,Solubility (mg/ml) at 25° C.,"[1]; in Benzyl benzoate, 25° C.",6.15 mg/mL
same,Solubility (mg/ml) at 25° C.,"[1]; in Ethanol, 25° C.",>200 mg/mL
same,Solubility (mg/ml) at 25° C.,"[1]; in Ethyl oleate, 25° C.",1.25 mg/mL
same,Solubility (mg/ml) at 25° C.,"[1]; in Isopropyl myristate, 25° C.",0.80 mg/mL
same,Solubility (mg/ml) at 25° C.,"[1]; in Migloyl 810, 25° C.",3.06 mg/mL
same,Solubility (mg/ml) at 25° C.,"[1]; in Migloyl 812, 25° C.",2.72 mg/mL
same,Solubility (mg/ml) at 25° C.,"[1]; in Polyethylene glycol (PEG 400), 25° C.",22.5 mg/mL
same,Solubility (mg/ml) at 25° C.,"[1]; in Propylene glycol, 25° C.",4.0 mg/mL
same,Solubility (mg/ml) at 25° C.,"[1]; in SPAN ® 85, 25° C.",3.79 mg/mL
same,Solubility (mg/ml) at 25° C.,"[1]; in Sesame oil, 25° C.",0.58 mg/mL
same,Median overall survival,[2]; fulvestrant 250 mg IM,22.3 months
same,Median overall survival,[2]; fulvestrant 500 mg IM,26.4 months
same,Progression-free survival (PFS),[2]; fulvestrant 500 mg compared with 250 mg,statistically significant increase
OCc1ccccc1 [Benzyl alcohol],Viscosity (cp),[3],5.40 cp
CC(O)CO (stereo not shown) [Propylene glycol],Viscosity (cp),[3],42.00 cp
"Cc1c(C)c2c(c(C)c1O)CCC(C)(CCCC(C)CCCC(C)CCCC(C)C)O2 (racemic) [dl-α-Tocopherol, dl-α-tocopherol]",Stability of dl-α-Tocopherol in the formulations,[4],unstable and susceptible to degradation
sorbitan monolaurate [SPAN ® 20],Viscosity (cp),[3],1000-2000 cp
"CCO [Ethyl alcohol (Ethanol), Ethanol]",Viscosity (cp),[3],1.04 cp
